# Experimental data from patent US4272437A, “Antibacterial agents, and 4-thio azetidinone intermediates” (priority 1979, dated 1981).
# Like-named read-outs stand apart in the source and are kept apart here.
# What was measured:
# Ent. cloacae A-9659 = assay: MIC, tube dilution, Enterobacter cloacae A9659; assay type: cell-based; conditions: overnight 37° C.; for MIC: Enterobacter cloacae, A9659, Enterobacter cloacae A9659, read-out: Minimum Inhibitory Concentration (M.I.C.)
# Description: (§1) Representative compounds of the present invention were subjected to in vitro antibiotic screening against a variety of microorganisms.
# [1] = system: Staph. aureus A-9537 and 50% serum; assay: MIC, tube dilution, Staph. aureus A9537 + 50% serum; assay type: cell-based, Staphylococcus aureus; conditions: overnight 37° C.; for MIC: Staphylococcus aureus, read-out: Minimum Inhibitory Concentration (M.I.C.)
# Description: as §1
# Str. pneumoniae A-9585 = assay: MIC, tube dilution, Streptococcus pneumoniae A9585; assay type: cell-based; conditions: overnight 37° C., Nutrient Broth; for MIC: Streptococcus pneumoniae, A9585, Str. pneumoniae A9585, read-out: Minimum Inhibitory Concentration (M.I.C.)
# Description: as §1
# Str. faecalis A-20688 = assay: MIC, tube dilution, Streptococcus faecalis A20688; assay type: cell-based; conditions: overnight 37° C.; for MIC: Enterococcus faecalis, A20688, Str. faecalis A20688, read-out: Minimum Inhibitory Concentration (M.I.C.)
# Description: as §1
# S. aureus A9537 = assay: In vivo protection of mice, lethal infection with S. aureus A9537; conditions: IM, 2 treatments; for ED50: Staphylococcus aureus, A9537, im, read-out: PD50
# Procedure: Representative compounds of the present invention were also tested in vivo in mice and their PD50 (dose of compound in mg/kg required to protect 50% of the treated mice against an otherwise lethal infection of a micro-organism) values determined with respect to the test organisms shown below.
# Ser. marcescens A-20019 = assay: MIC, tube dilution, Serratia marcescens A20019; assay type: cell-based; conditions: overnight 37° C.; for MIC: Serratia marcescens, A20019, Serratia marcescens A20019, read-out: Minimum Inhibitory Concentration (M.I.C.)
# Description: as §1
# Ps. aeruginosa A-21213 = assay: MIC, tube dilution, Pseudomonas aeruginosa A21213; assay type: cell-based; conditions: Pseudomonas aeruginosa A21213, overnight 37° C.; for MIC: read-out: Minimum Inhibitory Concentration (M.I.C.)
# Description: as §1
# K. pneumoniae A-15130 = assay: MIC, tube dilution, Klebsiella pneumoniae A15130; assay type: cell-based; conditions: overnight 37° C.; for MIC: Klebsiella pneumoniae, A15130, K. pneumoniae A15130, read-out: Minimum Inhibitory Concentration (M.I.C.)
# Description: as §1
# E. coli A-20341-1 = assay: MIC, tube dilution, Escherichia coli A20341-1; assay type: cell-based
# Description: as §1
# Staph. aureus A-9537 = assay: MIC, tube dilution, Staphylococcus aureus A9537; assay type: cell-based; conditions: overnight 37° C., Nutrient Broth; for MIC: Staphylococcus aureus, A9537, Staph. aureus A9537, read-out: Minimum Inhibitory Concentration (M.I.C.)
# Description: as §1
# Pr. mirabilis A-9900 = assay: MIC, tube dilution, Proteus mirabilis A9900; assay type: cell-based; conditions: overnight 37° C.; for Minimum Inhibitory Concentration (M.I.C.): Proteus mirabilis A9900; for MIC: Proteus mirabilis, A9900, Proteus mirabilis A9900, read-out: Minimum Inhibitory Concentration (M.I.C.)
# Description: as §1
# Pr. morganii A-15153 = assay: MIC, tube dilution, Proteus morganii A15153; assay type: cell-based; conditions: overnight 37° C.; for MIC: Morganella morganii, A15153, Proteus morganii A15153, read-out: Minimum Inhibitory Concentration (M.I.C.); for Minimum Inhibitory Concentration (M.I.C.): Proteus morganii A15153
# Description: as §1
# [2] = system: Staph. aureus (Pen-Res) A-9606; assay: MIC, tube dilution, Staphylococcus aureus A9606 (Pen-Res); assay type: cell-based; conditions: Staph. aureus A9606 (Pen-Res), overnight 37° C.; for MIC: Staphylococcus aureus, read-out: Minimum Inhibitory Concentration (M.I.C.)
# Description: as §1
# [3] = system: Staph. aureus (Meth-Res) A-15097; assay: MIC, tube dilution, Staphylococcus aureus A15097 (Meth-Res); assay type: cell-based; conditions: Staph. aureus A15097 (Meth-Res), overnight 37° C.; for MIC: Staphylococcus aureus, read-out: Minimum Inhibitory Concentration (M.I.C.)
# Description: as §1
# Ent. cloacae A-9656 = assay: MIC, tube dilution, Enterobacter cloacae A9656; assay type: cell-based; conditions: overnight 37° C.; for MIC: Enterobacter cloacae, A9656, Enterobacter cloacae A9656, read-out: Minimum Inhibitory Concentration (M.I.C.)
# Description: as §1
# Proteus vulgaris A21559 = assay: MIC, tube dilution, Proteus vulgaris A21559; assay type: cell-based; conditions: overnight 37° C.; for MIC: Proteus vulgaris, A21559, Proteus vulgaris A21559, read-out: Minimum Inhibitory Concentration (M.I.C.)
# Description: as §1
# [4] = system: Klebsiella species A20468; assay: MIC, tube dilution, Klebsiella species A20468; assay type: cell-based; conditions: Klebsiella species (K. pneumoniae) A20468, overnight 37° C.; for MIC: read-out: Minimum Inhibitory Concentration (M.I.C.)
# Description: as §1
# Proteus rettgeri A21203 = assay: MIC, tube dilution, Proteus rettgeri A21203; assay type: cell-based; conditions: overnight 37° C.; for MIC: Providencia rettgeri, A21203, Proteus rettgeri A21203, read-out: Minimum Inhibitory Concentration (M.I.C.)
# Description: as §1
# Str. pyogenes A-9604 = assay: MIC, tube dilution, Streptococcus pyogenes A9604; assay type: cell-based; conditions: overnight 37° C., Nutrient Broth; for MIC: Streptococcus pyogenes, A9604, Str. pyogenes A9604, read-out: Minimum Inhibitory Concentration (M.I.C.)
# Description: as §1
# E. coli A-15119 = assay: MIC, tube dilution, Escherichia coli A15119; assay type: cell-based; conditions: overnight 37° C.; for MIC: Escherichia coli, A15119, E. coli A15119, read-out: Minimum Inhibitory Concentration (M.I.C.)
# Description: as §1
# Ps. aeruginosa A-9843A = assay: MIC, tube dilution, Pseudomonas aeruginosa A9843A; assay type: cell-based; conditions: overnight 37° C.; for MIC: Pseudomonas aeruginosa, A9843A, read-out: Minimum Inhibitory Concentration (M.I.C.), Pseudomonas aeruginosa A9843A
# Description: as §1
Compound,MIC (Ent. cloacae A-9659),MIC [1],MIC (Str. pneumoniae A-9585),MIC (Str. faecalis A-20688),MIC (Ser. marcescens A-20019),MIC (Ps. aeruginosa A-21213),MIC (K. pneumoniae A-15130),MIC (Staph. aureus A-9537),Minimum Inhibitory Concentration (M.I.C.) (Pr. mirabilis A-9900),MIC (Pr. mirabilis A-9900),MIC (Pr. morganii A-15153),Minimum Inhibitory Concentration (M.I.C.) (Pr. morganii A-15153),MIC [2],MIC [3],MIC (Ent. cloacae A-9656),MIC (Proteus vulgaris A21559),MIC [4],MIC (Proteus rettgeri A21203),MIC (Str. pyogenes A-9604),MIC (E. coli A-15119),also measured
"CC1=C(C(=O)O)N2C(=O)[C@H]([C@@H](C)O)[C@H]2S1 (relative stereo) [Example 60, (1'R,5R,6S and 1'S,5S,6R) 6-(1'-Hydroxy-1'-ethyl)-2-methylpenem-3-carboxylic Acid (isomer B)]",32 µg/mL,8 µg/mL,0.25 µg/mL,63 µg/mL,16 µg/mL,> 125 µg/mL,16 µg/mL,2 µg/mL,16 µg/mL,32 µg/mL,32 µg/mL,16 µg/mL,4 µg/mL,8 µg/mL,16 µg/mL,16 µg/mL,16 µg/mL,16 µg/mL,1 µg/mL,16 µg/mL,"ED50 (S. aureus A9537; 6.6 × 10^5 organisms): 7.7 mg/kg; MIC (E. coli A-20341-1; Escherichia coli, A203411, E. coli A20341-1; overnight 37° C.; read-out: Minimum Inhibitory Concentration (M.I.C.)): 16 µg/mL; MIC (Ps. aeruginosa A-9843A): > 125 µg/mL"
"NC1CCC(C2=C(C(=O)O)N3C(=O)C[C@H]3S2)C1 (single isomer, unassigned) [98 isomer B, 2-(3-Aminocyclopentyl)-penem-3-carboxylic acid]",,,,,,,,,1 µg/mL,,,4 µg/mL,,,,,,,,,"Minimum Inhibitory Concentration (M.I.C.) (Ent. cloacae A-9659; Enterobacter cloacae A9659): 8 µg/mL; Minimum Inhibitory Concentration (M.I.C.) [1]: .25 µg/mL; Minimum Inhibitory Concentration (M.I.C.) (Str. pneumoniae A-9585; Str. pneumoniae A9585): .008 µg/mL; Minimum Inhibitory Concentration (M.I.C.) (Str. faecalis A-20688; Str. faecalis A20688): 8 µg/mL; PD50 (S. aureus A9537; 9.1 × 10^5 organisms, listed as Ex. 98 (isomer B)): 0.12 mg/kg/treatment; Minimum Inhibitory Concentration (M.I.C.) (Ser. marcescens A-20019; Serratia marcescens A20019): 2 µg/mL; Minimum Inhibitory Concentration (M.I.C.) (Ps. aeruginosa A-21213): > 63 µg/mL; Minimum Inhibitory Concentration (M.I.C.) (K. pneumoniae A-15130; K. pneumoniae A15130): 4 µg/mL; Minimum Inhibitory Concentration (M.I.C.) (E. coli A-20341-1; E. coli A20341-1; overnight 37° C.): 16 µg/mL; Minimum Inhibitory Concentration (M.I.C.) (Staph. aureus A-9537; Staph. aureus A9537): .03 µg/mL; Minimum Inhibitory Concentration (M.I.C.) [2]: > 63 µg/mL; Minimum Inhibitory Concentration (M.I.C.) [3]: > 63 µg/mL; Minimum Inhibitory Concentration (M.I.C.) (Ent. cloacae A-9656; Enterobacter cloacae A9656): 2 µg/mL; Minimum Inhibitory Concentration (M.I.C.) (Proteus vulgaris A21559; Proteus vulgaris A21559): 8 µg/mL; Minimum Inhibitory Concentration (M.I.C.) [4]: > 63 µg/mL; Minimum Inhibitory Concentration (M.I.C.) (Proteus rettgeri A21203; Proteus rettgeri A21203): 1 µg/mL; Minimum Inhibitory Concentration (M.I.C.) (Str. pyogenes A-9604; Str. pyogenes A9604): .008 µg/mL; Minimum Inhibitory Concentration (M.I.C.) (E. coli A-15119; E. coli A15119): 1 µg/mL; Minimum Inhibitory Concentration (M.I.C.) (Ps. aeruginosa A-9843A; Pseudomonas aeruginosa A9843A): 63 µg/mL"
"NCc1ccc(C2=C(C(=O)O)N3C(=O)CC3S2)cc1 (centres unmarked) [Example 74, 2-(p-Aminomethylphenyl)penem-3-carboxylic Acid]",32 µg/mL,2 µg/mL,0.001 µg/mL,1 µg/mL,16 µg/mL,> 125 µg/mL,32 µg/mL,0.004 µg/mL,,4 µg/mL,16 µg/mL,,32 µg/mL,32 µg/mL,32 µg/mL,16 µg/mL,> 125 µg/mL,16 µg/mL,0.001 µg/mL,8 µg/mL,"ED50 (S. aureus A9537; 7.3 × 10^5 organisms): 0.82 mg/kg; MIC (E. coli A-20341-1; Escherichia coli, A203411; E. coli A20341-1; overnight 37° C.; read-out: Minimum Inhibitory Concentration (M.I.C.)): 125 µg/mL; MIC (Ps. aeruginosa A-9843A): > 125 µg/mL"
